Reference: patent US8415469B2, “Compounds and methods for kinase modulation, and indications therefor” (Plexxikon Inc., priority 2005, dated 2013)
One block for each compound: values may come before it.

Tests used:
Type in all cases: biochemical
Zap70 = molecular target: T1, Zap70 (Homo sapiens, UniProt P43403); assay: AlphaScreen kinase assay, Zap70; details: read-out: IC50, activity toward kinase Zap70
T1 construct: P1868.pFastBac1 ZAP70 D327-G606 HIS, WT; His7 (HHHHHHH) (C); made in house
T1 sequence (P43403 with tags, fused parts or gaps): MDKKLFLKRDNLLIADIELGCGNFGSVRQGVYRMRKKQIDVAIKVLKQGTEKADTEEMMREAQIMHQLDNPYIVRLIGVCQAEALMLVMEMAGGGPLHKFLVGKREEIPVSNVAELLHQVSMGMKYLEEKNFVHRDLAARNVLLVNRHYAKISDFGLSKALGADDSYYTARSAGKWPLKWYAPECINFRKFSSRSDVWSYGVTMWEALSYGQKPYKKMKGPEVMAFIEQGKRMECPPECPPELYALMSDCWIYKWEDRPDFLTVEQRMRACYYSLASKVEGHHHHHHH
Excerpt: AlphaScreen assay was used to screen additional kinases. The assay is similarly dependent on the phosphorylation of a peptide substrate. In this assay, an antibody that recognizes phosphorylated substrate is bound to an acceptor bead. The peptide substrate is attached to biotin, which binds to a donor head that contains streptavidin. Thus phosphorylated substrate is bound by antibody and streptavidin, bringing the donor and acceptor heads into close proximity when kinase is not inhibited. The donor produces singlet oxygen which results in emission from the acceptor when they are in close proximity. Conversely, when kinase is inhibited, the donor and acceptor beads are not associated and the emission from the acceptor is reduced.
AlphaScreen assays were done using compounds dissolved in DMSO to a concentration of 20 mM. The compounds were diluted accordingly to the desired final concentrations in each sample well, using 1:3 serial dilution for a total of 8 concentration points.

Fak = molecular target: T2, Fak (Homo sapiens, UniProt Q05397); assay: AlphaScreen kinase assay, Fak; details: read-out: IC50, activity toward kinase Fak
T2 construct: P1358.pFastBacHtb FAK S411-Q686-X; His6 with pFastBacHTb leader (TEV site) (N); made in house; host or cells: Sf9 (baculovirus)

Src = molecular target: T3, Src (Homo sapiens, UniProt P12931); assay: AlphaScreen kinase assay, Src; details: read-out: IC50, activity toward kinase Src
T3 construct: P1144. pET-N6 BI-PTP SRC V86-L536-X; made in house

Yes = molecular target: T4, Yes (Homo sapiens, UniProt P07947); assay: Z'-Lyte FRET kinase assay (Invitrogen), Yes; details: read-out: IC50, activity toward kinase Yes
T4 construct: purchased Invitrogen (Carlsbad, Calif.), screening service
Excerpt: The effect of potential modulators of kinase activity can be measured in a variety of different assays known in the art. For example, direct radiometric, indirect FRET or AlphaScreen assays may be used to assess the level of phosphorylation of a substrate in the presence of test compounds in order to determine the inhibitory affect of the compound on the kinase. Invitrogen (Carlsbad, Calif.) uses a FRET based assay for Btk, EGFR, EphB2, Flt3, lrak4, Kdr, MAP2K1, MAPKAPK2, PDGFRB, PKC theta, Stk6 and Yes. For these assays, compounds of the invention were screened by Invitrogen using Z′-Lyte™ kinase assay.
Briefly, the Invitrogen kinase assay involves use of a specific peptide substrate optimized for each kinase, containing a fluorophore at each end that make up the FRET pair. The peptide sensitivity to proteolytic cleavage depends on phosphorylation of the peptide. Non-phosphorylated peptide is cleaved by a protease while peptide phosphorylated by the kinase is not cleaved. Cleavage of the peptide disrupts the FRET between the donor (coumarin) and acceptor (fluorescein) fluorophores, resulting in an increase in the ratio of donor emission to acceptor emission. The emission ratio of coumarin to fluorescein is used to assess the reaction progress. The extent of phosphorylation is determined from the emission ratio, which is low when the kinase is active (phosphorylated peptide is not cleaved, FRET pair connected) or higher for inhibited kinase (non-phosphorylated peptide is cleaved, FRET pair separated). Thus, the assay involves a kinase reaction in the presence of varying concentrations of a given compound, a development reaction with site specific protease, and detection of the fluorescent emission ratio of coumarin and fluorscein. […] Reaction conditions for each kinase are determined to provide optimal reaction times, incubation temperature, kinase and ATP concentrations. Test samples are made up in 1× kinase buffer (50 mM HEPES pH 7.5, 50 mM MgCl2, 5 mM EGTA, 0.05% BRIJ-35) and compound at desired concentration prepared in DMSO such that the final DMSO is 1%. […] Typically, assay plates are prepared to 10 μl final volume per sample, adding 2.5 μl of compound at 4× the desired concentration in 4% DMSO (serial dilution of compound provides concentration curve), 5 μl of the desired kinase mixed with Z′-LYTE™ peptide substrate (2× in 2× kinase buffer, final peptide at 2 μM), and 2.5 μl of 4×ATP solution. All kinase except for MAP2K1 were at 10 μM ATP in the kinase reaction, while MAP2K1 was at 100 μM. Samples are mixed and the kinase reaction is incubated 1 hour at room temperature, after which 5 μl of development solution is added and mixed. After incubation for another 1 hour at room temperature, 5 μl of stop reagent is added to each sample and mixed. The fluorescence signals are measured to determine the emission ratio.

B-Raf = molecular target: T5, B-Raf (Homo sapiens, UniProt P15056); assay: AlphaScreen kinase assay, B-Raf; details: read-out: IC50, activity toward kinase B-Raf
T5 construct: purchased Upstate Biotechnology

c-Raf-1 = molecular target: T6, c-Raf-1 (Homo sapiens, UniProt P04049); assay: AlphaScreen kinase assay, c-Raf-1; details: read-out: IC50, activity toward kinase c-Raf-1
T6 construct: purchased Upstate Biotechnology

Pyk2 = molecular target: T7, Pyk2 (Homo sapiens, UniProt Q14289); assay: AlphaScreen kinase assay, Pyk2; details: read-out: IC50, activity toward kinase Pyk2
T7 construct: purchased Upstate Biotechnology

B-Raf V600E = molecular target: T8, B-Raf V600E (Homo sapiens, UniProt P15056, V600E); assay: AlphaScreen kinase assay, B-Raf V600E; details: read-out: IC50, activity toward kinase B-Raf V600E
T8 construct: P4254. pFastBacBD-CDC37 BRAF D437-K722-X, V600E; His6 with pFastBac HT leader (TEV site) (N); made in house; host or cells: Sf9 (baculovirus; chaperone CDC37 co-expressed)

Stk6 = molecular target: T9, Stk6 (Homo sapiens, UniProt O14965); assay: Z'-Lyte FRET kinase assay (Invitrogen), Stk6; details: read-out: IC50, activity toward kinase Stk6
T9 construct: purchased Invitrogen (Carlsbad, Calif.), screening service
T9 sequence (O14965 1-403): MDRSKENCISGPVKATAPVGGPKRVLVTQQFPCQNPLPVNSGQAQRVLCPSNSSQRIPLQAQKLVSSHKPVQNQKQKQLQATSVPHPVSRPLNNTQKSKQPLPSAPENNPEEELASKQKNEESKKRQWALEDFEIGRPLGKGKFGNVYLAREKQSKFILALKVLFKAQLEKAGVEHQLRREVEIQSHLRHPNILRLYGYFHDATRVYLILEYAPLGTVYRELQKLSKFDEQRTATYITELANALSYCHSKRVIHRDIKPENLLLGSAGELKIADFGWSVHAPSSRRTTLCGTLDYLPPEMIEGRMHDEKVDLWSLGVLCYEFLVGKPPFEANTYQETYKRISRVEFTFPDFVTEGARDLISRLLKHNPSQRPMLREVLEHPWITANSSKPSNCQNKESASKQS

Kdr = molecular target: T10, Kdr (Homo sapiens, UniProt P35968); assay: Z'-Lyte FRET kinase assay (Invitrogen), Kdr; details: read-out: IC50, activity toward kinase Kdr
T10 construct: purchased Invitrogen (assay run by Invitrogen)

Ret = molecular target: T11, Ret (Homo sapiens, UniProt P07949); assay: AlphaScreen kinase assay, Ret; details: read-out: IC50, activity toward kinase Ret
T11 construct: P1378.pET-SF BI-PTP RET H661-R1012 HIS; made in house
T11 sequence (P07949 with tags, fused parts or gaps): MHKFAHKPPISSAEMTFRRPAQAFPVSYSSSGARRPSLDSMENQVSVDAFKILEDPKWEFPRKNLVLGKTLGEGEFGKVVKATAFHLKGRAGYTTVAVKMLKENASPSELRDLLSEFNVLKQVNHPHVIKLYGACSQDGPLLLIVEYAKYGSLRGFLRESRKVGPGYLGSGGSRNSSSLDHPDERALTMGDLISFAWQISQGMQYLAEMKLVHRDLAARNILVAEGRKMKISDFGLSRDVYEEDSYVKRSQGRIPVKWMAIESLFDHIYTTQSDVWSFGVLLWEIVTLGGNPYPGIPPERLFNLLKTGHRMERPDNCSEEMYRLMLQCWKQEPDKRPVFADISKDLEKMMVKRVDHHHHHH

FGFR1 = molecular target: T12, FGFR1 (Homo sapiens, UniProt P11362, C488A/C584S); assay: AlphaScreen kinase assay, FGFR1; details: read-out: IC50, activity toward kinase FGFR
T12 construct: P1351.pET N6 BI-PTP FGFR A458-E765-X C488A, C584S; made in house; host or cells: E. coli (PTP1B co-expressed)

Fms = molecular target: T13, Fms (Homo sapiens, UniProt P07333); assay: AlphaScreen kinase assay, Fms; details: read-out: IC50, activity toward kinase Fms
T13 construct: purchased Upstate Biotechnology

Kit = molecular target: T14, Kit (Homo sapiens, UniProt P10721); assay: AlphaScreen kinase assay, Kit; details: read-out: IC50, activity toward kinase Kit
T14 construct: P1332.N6 BI PTP KIT M552-K948-X COD; His6 (N); made in house; host or cells: E. coli (PTP1B co-expressed)

T3 sequence (P12931 with tags, fused parts or gaps): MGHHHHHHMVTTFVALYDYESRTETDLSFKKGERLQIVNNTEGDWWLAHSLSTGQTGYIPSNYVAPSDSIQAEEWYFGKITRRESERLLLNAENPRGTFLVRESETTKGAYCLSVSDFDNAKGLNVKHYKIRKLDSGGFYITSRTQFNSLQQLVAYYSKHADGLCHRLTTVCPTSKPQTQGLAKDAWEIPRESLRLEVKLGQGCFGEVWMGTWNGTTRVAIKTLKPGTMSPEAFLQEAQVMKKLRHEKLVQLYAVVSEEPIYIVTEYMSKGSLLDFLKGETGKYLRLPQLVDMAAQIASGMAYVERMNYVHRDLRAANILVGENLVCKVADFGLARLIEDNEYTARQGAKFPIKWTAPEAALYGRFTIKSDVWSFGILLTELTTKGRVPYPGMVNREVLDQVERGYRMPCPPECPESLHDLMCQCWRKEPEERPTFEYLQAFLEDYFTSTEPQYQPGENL
T5 sequence (P15056 whole entry): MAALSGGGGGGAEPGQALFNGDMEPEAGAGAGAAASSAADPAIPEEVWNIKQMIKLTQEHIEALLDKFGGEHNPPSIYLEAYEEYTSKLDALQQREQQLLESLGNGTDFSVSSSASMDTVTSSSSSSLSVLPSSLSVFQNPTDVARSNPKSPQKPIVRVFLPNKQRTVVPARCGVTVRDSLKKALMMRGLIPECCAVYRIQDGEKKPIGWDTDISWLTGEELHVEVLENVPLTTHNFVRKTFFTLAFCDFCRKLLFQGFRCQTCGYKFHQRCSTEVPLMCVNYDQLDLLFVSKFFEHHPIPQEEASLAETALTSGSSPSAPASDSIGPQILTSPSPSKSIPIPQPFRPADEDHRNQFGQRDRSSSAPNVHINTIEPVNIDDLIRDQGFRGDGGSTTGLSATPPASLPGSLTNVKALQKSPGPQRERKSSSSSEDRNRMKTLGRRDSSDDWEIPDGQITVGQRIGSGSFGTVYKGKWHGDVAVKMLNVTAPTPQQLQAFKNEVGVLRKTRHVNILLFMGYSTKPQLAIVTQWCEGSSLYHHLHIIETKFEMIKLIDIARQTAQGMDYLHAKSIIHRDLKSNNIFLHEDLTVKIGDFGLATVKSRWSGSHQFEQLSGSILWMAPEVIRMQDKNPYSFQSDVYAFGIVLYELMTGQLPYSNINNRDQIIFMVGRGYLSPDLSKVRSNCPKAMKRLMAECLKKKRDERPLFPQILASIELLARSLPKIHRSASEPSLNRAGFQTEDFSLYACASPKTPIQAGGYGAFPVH
T8 sequence (P15056 with tags, fused parts or gaps V600E): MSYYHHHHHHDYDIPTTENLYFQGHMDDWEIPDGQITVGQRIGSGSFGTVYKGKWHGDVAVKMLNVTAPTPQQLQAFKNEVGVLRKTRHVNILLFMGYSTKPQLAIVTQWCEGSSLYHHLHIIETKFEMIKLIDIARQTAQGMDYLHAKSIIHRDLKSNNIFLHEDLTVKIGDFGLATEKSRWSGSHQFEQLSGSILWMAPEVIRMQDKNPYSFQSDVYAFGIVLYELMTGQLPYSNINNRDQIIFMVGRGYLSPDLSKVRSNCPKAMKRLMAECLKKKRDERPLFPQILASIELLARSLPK
T4 sequence (P07947 whole entry): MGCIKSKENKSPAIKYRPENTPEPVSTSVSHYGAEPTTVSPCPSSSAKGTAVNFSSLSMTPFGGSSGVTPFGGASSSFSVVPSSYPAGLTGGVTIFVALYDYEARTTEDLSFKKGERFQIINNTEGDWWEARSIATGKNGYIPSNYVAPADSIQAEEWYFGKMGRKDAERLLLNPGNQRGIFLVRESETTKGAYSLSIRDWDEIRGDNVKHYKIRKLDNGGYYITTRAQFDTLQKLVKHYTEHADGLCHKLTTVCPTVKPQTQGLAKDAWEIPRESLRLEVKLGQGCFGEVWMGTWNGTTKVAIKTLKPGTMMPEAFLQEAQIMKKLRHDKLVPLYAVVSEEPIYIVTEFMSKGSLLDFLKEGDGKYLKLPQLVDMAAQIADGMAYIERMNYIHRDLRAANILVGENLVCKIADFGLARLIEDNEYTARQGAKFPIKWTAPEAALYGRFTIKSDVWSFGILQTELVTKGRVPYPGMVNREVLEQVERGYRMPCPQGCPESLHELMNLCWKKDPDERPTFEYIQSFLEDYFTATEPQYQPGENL
T6 sequence (P04049 whole entry): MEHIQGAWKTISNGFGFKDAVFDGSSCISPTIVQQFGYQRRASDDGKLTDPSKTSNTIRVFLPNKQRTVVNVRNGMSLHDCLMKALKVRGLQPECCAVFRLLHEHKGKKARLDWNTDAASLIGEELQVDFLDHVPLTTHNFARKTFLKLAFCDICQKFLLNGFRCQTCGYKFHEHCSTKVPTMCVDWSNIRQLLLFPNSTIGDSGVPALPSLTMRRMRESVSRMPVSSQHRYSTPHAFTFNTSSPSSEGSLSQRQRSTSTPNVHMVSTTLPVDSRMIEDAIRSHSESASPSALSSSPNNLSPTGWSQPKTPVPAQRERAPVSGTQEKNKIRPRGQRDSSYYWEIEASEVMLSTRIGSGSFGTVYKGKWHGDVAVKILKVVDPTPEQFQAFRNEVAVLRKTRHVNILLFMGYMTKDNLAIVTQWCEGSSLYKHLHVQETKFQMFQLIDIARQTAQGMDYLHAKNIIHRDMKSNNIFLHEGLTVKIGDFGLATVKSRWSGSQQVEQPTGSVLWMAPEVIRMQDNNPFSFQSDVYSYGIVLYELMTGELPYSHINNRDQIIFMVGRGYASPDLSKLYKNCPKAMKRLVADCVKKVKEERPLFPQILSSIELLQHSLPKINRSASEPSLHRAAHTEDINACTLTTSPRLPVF
T7 sequence (Q14289 whole entry): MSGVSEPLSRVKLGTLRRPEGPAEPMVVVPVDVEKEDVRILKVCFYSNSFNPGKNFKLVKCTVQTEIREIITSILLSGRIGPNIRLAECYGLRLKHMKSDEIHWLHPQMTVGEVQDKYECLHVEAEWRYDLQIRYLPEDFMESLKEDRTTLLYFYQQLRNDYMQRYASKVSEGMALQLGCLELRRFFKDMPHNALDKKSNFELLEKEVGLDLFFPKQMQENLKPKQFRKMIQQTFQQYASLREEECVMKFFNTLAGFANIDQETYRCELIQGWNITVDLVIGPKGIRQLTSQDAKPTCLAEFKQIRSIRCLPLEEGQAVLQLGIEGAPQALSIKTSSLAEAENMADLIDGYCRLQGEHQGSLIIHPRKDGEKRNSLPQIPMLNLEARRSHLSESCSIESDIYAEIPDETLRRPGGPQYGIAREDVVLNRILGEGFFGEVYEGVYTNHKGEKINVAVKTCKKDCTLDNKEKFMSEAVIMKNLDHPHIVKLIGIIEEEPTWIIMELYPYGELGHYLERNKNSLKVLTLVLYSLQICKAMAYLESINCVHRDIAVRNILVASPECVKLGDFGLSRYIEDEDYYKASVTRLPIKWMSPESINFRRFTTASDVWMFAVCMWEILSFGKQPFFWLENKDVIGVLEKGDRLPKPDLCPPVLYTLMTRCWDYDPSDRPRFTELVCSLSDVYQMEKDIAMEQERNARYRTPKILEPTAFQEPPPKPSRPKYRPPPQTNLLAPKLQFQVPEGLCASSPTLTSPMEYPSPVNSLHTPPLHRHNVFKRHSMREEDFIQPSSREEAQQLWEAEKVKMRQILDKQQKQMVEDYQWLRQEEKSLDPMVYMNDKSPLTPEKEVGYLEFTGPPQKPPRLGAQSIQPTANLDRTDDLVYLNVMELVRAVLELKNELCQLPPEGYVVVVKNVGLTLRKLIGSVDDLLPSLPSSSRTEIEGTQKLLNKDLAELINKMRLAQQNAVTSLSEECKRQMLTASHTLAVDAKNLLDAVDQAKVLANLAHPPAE
T2 sequence (Q05397 411-686): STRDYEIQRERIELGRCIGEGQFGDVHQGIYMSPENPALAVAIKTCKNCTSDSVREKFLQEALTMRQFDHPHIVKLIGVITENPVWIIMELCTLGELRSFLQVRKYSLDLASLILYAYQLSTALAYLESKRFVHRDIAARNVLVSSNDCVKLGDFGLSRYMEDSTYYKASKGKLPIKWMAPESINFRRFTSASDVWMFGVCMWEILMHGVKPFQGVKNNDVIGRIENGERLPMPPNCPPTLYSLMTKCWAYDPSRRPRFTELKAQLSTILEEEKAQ
T13 sequence (P07333 20-972): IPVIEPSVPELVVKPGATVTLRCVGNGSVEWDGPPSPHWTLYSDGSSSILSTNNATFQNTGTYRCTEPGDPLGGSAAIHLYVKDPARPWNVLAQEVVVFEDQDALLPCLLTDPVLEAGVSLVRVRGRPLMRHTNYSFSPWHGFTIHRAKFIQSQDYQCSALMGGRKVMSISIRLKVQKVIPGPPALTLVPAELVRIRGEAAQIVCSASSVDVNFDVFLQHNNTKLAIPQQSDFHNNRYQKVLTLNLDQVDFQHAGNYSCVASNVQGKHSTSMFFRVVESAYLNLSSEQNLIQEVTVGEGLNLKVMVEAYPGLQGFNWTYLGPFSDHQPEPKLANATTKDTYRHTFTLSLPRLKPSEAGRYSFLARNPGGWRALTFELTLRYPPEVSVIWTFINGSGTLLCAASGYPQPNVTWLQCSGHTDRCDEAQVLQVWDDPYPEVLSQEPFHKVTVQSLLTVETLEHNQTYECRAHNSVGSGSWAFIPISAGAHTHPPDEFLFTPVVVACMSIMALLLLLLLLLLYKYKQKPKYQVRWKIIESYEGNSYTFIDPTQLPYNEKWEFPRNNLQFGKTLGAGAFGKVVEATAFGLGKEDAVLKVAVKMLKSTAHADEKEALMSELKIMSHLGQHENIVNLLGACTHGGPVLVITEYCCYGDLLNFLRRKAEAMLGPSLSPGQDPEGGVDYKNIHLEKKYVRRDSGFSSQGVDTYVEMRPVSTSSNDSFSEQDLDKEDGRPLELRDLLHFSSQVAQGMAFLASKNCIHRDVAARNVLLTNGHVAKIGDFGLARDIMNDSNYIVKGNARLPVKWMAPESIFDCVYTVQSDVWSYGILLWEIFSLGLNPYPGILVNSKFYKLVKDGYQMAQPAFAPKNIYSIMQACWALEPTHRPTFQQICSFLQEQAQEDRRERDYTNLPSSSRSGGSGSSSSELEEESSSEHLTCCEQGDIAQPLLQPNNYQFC

Compound: CN(Cc1ccncc1)Cc1[nH]c2ncccc2c1-c1ccc(C(N)=O)cc1 [Compound P-0727]
IC50 (Zap70): ≤ 10 µM

Compound: O=S(=O)(NCc1c[nH]c2ncccc12)c1ccc(Cl)s1 [Compound P-0930]
IC50 (Zap70): ≤ 10 µM

Compound: c1cncc(-c2ccnc3[nH]ccc23)c1 [Compound P-0387]
IC50 (Zap70): ≤ 10 µM

Compound: O=C(NCc1ccccc1Cl)NCc1c[nH]c2ncccc12 [Compound P-0982]
IC50 (Zap70): ≤ 10 µM

Compound: CC(C)(C)NCc1c[nH]c2ncccc12 [Compound P-0476]
IC50 (Zap70): ≤ 10 µM

Compound: Cc1cc2cccnc2[nH]1 [Compound P-0394]
IC50 (Zap70): ≤ 10 µM

Compound: COc1cc(CCNCc2cc3cccnc3[nH]2)ccc1O [Compound P-0836]
IC50 (Zap70): ≤ 10 µM

Compound: COc1cccc(-c2ccc3c(CNS(=O)(=O)c4ccc(C)cc4)c[nH]c3n2)c1 [Compound P-0209]
IC50 (Fak): ≤ 10 µM
IC50 (Src): ≤ 10 µM
IC50 (Yes): ≤ 10 µM

Compound: Fc1ccc(Cc2nc(-c3c[nH]c4ncccc34)no2)cc1 [Compound P-0602]
IC50 (Zap70): ≤ 10 µM

Compound: Cc1cccc(-c2ccnc3[nH]cc(CNS(=O)(=O)c4ccc([N+](=O)[O-])cc4)c23)c1 [Compound P-0888]
IC50 (Zap70): ≤ 10 µM

Compound: CCCS(=O)(=O)Nc1ccc(F)c(C(O)c2c[nH]c3ncc(Br)cc23)c1F (stereo not drawn) [Compound P-0188, Propane-1-sulfonic acid {3-[(5-bromo-1H-pyrrolo[2,3-b]pyridin-3-yl)-hydroxy-methyl]-2,4-difluoro-phenyl}-amide]
IC50 (B-Raf): ≤ 10 µM
IC50 (c-Raf-1): ≤ 10 µM
IC50 (Pyk2): ≤ 10 µM
IC50 (B-Raf V600E): ≤ 10 µM
IC50 (Stk6): ≤ 10 µM
IC50 (Yes): ≤ 10 µM

Compound: COC(=O)Nc1ccc(F)c(C(O)c2c[nH]c3ncc(-c4cccnc4)cc23)c1F (stereo not drawn) [Compound P-0065, {2,4-difluoro-3-[hydroxy-(5-pyridin-3-yl-1H-pyrrolo[2,3b]pyridin-3-yl)-methyl]-phenyl}-carbamic acid methyl ester]
IC50 (Kdr): ≤ 10 µM
IC50 (B-Raf): ≤ 10 µM
IC50 (Stk6): ≤ 10 µM
IC50 (Ret): ≤ 10 µM
IC50 (Yes): ≤ 10 µM

Compound: CS(=O)(=O)Nc1ccc(F)c(C(=O)c2c[nH]c3ncc(-c4cccc(S(C)(=O)=O)c4)cc23)c1F [Compound P-0210]
IC50 (Fak): ≤ 10 µM
IC50 (FGFR1): ≤ 10 µM
IC50 (B-Raf): ≤ 10 µM
IC50 (c-Raf-1): ≤ 10 µM
IC50 (Src): ≤ 10 µM
IC50 (B-Raf V600E): ≤ 10 µM
IC50 (Ret): ≤ 10 µM
IC50 (Fms): ≤ 10 µM
IC50 (Kit): ≤ 10 µM
IC50 (Yes): ≤ 10 µM

The next lines start with the values.

IC50 (Zap70): ≤ 10 µM
Compound: O=C(OCc1ccccc1)c1cnc2[nH]ccc2c1 [Compound P-0607]

IC50 (Zap70): ≤ 10 µM
Compound: O=C1CCCN1CCCNCc1c[nH]c2ncccc12 [Compound P-1184]

IC50 (Zap70): ≤ 10 µM
Compound: FC(F)(F)c1ccc(-c2ccnc3[nH]ccc23)cc1 [Compound P-0694]

IC50 (Zap70): ≤ 10 µM
Compound: CCCOc1ccc(-c2c[nH]c3ncccc23)cc1 [Compound P-0878]

IC50 (Zap70): ≤ 10 µM
Compound: COc1ccc(Cc2c[nH]c3ncccc23)cc1F [Compound P-0359]

IC50 (B-Raf): ≤ 10 µM
IC50 (Pyk2): ≤ 10 µM
IC50 (B-Raf V600E): ≤ 10 µM
IC50 (Ret): ≤ 10 µM
IC50 (Yes): ≤ 10 µM
Compound: O=C(Nc1ccc(F)c(C(O)c2c[nH]c3ncc(-c4cccnc4)cc23)c1F)OCc1ccccc1 (stereo not drawn) [Compound P-0095, {2,4-Difluoro-3-[hydroxy-(5-pyridin-3-yl-1H-pyrrolo[2,3b]pyridin-3-yl)-methyl]-phenyl}-carbamic acid benzyl ester]

IC50 (Kdr): ≤ 10 µM
IC50 (B-Raf): ≤ 10 µM
IC50 (c-Raf-1): ≤ 10 µM
IC50 (B-Raf V600E): ≤ 10 µM
IC50 (Stk6): ≤ 10 µM
IC50 (Yes): ≤ 10 µM
Compound: CS(=O)(=O)Nc1ccc(F)c(C(=O)c2c[nH]c3ncc(Br)cc23)c1F [Compound P-0162, N-[3-(5-Bromo-1H-pyrrolo[2,3-b]pyridine-3-carbonyl)-2,4-difluoro-phenyl]-methanesulfonamide]

IC50 (Src): ≤ 10 µM
IC50 (B-Raf V600E): ≤ 10 µM
IC50 (Stk6): ≤ 10 µM
IC50 (Fms): ≤ 10 µM
IC50 (Yes): ≤ 10 µM
Compound: O=C(c1ccc(NCc2cccs2)nc1)c1c[nH]c2ncccc12 [Compound P-0237]
